Data published in publication PMC5104457, “ATP-Competitive MLKL Binders Have No Functional Impact on Necroptosis” (PLoS ONE, 2016).

Key:
full length MLKL = molecular target: T1, full length MLKL (Homo sapiens, UniProt Q8NB16); assay: KINOMEscan ATP-competitive probe displacement (competition binding) assay, MLKL; conditions: average of duplicates
T1 construct: purchased DiscoverX (KINOMEscan service); host or cells: HEK-293
T1 sequence (Q8NB16 1-471): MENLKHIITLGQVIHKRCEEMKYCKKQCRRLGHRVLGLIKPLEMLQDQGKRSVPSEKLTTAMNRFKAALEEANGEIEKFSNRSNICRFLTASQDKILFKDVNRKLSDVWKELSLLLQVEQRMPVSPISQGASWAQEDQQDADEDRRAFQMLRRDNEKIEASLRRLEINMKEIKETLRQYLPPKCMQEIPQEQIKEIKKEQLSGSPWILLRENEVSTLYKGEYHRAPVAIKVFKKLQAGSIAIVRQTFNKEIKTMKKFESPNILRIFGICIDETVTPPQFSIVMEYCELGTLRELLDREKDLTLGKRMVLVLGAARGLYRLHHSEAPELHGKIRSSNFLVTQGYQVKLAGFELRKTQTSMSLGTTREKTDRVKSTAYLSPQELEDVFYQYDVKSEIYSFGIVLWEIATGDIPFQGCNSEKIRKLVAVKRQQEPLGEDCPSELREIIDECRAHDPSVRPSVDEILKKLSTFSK
Experimental: Compound binding constants (KDs) were determined at DiscoverX using their KINOMEscan assay platform. […] Briefly, full length MLKL was expressed in HEK-293 cells as a fusion with an NFκB DNA binding domain and subsequently tagged with a qPCR detection amplicon via interaction with NFκB. […] Twenty microliters of binding reactions were carried out in 384-well polypropylene plates for 1 hour at room temperature. Beads were subsequently washed and resuspended in elution buffer for 30 minutes at room temperature with shaking. The concentration of MLKL in the eluates was measured by qPCR and compound binding constants were calculated using a standard dose-response curve.
(§1) A similar approach was used to measure binding affinities for RIPK1 and RIPK3 kinase domains.

RIPK1 kinase domain = molecular target: T2, RIPK1 kinase domain (Homo sapiens, UniProt Q13546); assay: ATP-competitive probe displacement assay, RIPK1; format: binding; conditions: average of duplicates
T2 construct: purchased DiscoverX
T2 sequence (Q13546 17-289 limits assumed): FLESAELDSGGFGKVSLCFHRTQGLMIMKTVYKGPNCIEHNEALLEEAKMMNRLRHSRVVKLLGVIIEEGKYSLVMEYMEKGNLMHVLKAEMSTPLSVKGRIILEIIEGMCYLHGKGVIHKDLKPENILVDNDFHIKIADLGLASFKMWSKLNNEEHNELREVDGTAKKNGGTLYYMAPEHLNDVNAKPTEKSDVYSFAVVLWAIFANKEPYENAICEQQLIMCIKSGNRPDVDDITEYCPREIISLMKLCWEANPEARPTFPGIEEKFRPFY
Experimental: (§2) Compound binding constants (KDs) were determined at DiscoverX using their KINOMEscan assay platform. This competition binding assay was previously described in Karaman et al. (2008)[18]. Briefly, full length MLKL was expressed in HEK-293 cells as a fusion with an NFκB DNA binding domain and subsequently tagged with a qPCR detection amplicon via interaction with NFκB. […] Twenty microliters of binding reactions were carried out in 384-well polypropylene plates for 1 hour at room temperature. Beads were subsequently washed and resuspended in elution buffer for 30 minutes at room temperature with shaking. The concentration of MLKL in the eluates was measured by qPCR and compound binding constants were calculated using a standard dose-response curve.
as §1

RIPK3 kinase domain = molecular target: T3, RIPK3 kinase domain (Homo sapiens, UniProt Q9Y572); assay: ATP-competitive probe displacement assay, RIPK3; format: binding; conditions: average of duplicates
T3 construct: purchased DiscoverX
T3 sequence (Q9Y572 21-287 limits assumed): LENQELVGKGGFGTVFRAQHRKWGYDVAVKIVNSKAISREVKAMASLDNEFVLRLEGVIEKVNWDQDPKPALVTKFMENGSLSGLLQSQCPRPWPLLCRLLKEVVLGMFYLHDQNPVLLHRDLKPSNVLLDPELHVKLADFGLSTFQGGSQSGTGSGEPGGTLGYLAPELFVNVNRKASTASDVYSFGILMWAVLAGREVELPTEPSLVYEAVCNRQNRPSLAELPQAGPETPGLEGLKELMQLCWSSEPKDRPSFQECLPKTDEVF
Experimental: as §2, §1

pseudokinase His-MLKL-1 = molecular target: T4, pseudokinase His-MLKL-1 (Homo sapiens, UniProt Q8NB16); assay: Second harmonic generation (SHG) conformational assay, MLKL pseudokinase domain; conditions: 10 μM compound; MLKL construct not given
T4 construct: sub-cloning residues 191 to 471 of the pseudokinase domain of human MLKL cDNA; made in house; host or cells: Escherichia coli BL21 (DE3)
T4 sequence (Q8NB16 191-471): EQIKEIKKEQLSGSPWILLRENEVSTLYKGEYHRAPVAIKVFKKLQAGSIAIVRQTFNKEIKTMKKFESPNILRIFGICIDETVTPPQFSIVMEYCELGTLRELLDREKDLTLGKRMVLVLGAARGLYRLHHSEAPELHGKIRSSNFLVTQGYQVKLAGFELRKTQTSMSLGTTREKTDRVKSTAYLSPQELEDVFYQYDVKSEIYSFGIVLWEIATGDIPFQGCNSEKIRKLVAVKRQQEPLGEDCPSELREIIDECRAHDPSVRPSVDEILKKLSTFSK
From the text: MLKL-1 was constructed by sub-cloning residues 191 to 471 of the pseudokinase domain of human MLKL cDNA into a pET15b vector with a thrombin cleavable N-terminal six histidine fusion tag (His-MLKL-1). MLKL-2 had the same protein boundaries and fusion tag system as MLKL-1 but the dual mutations E366A and K367A were introduced using site directed mutagenesis and was expressed in the same vector (His-MLKL-2). These residues were identified as having high surface entropy and were mutated to alanine to improve crystal packing.
The labeling reaction was performed according to manufacturer’s instructions. […]
Experiments were performed on a Biodesy Delta System. […] The fundamental is directed to an arrangement of prisms integrated with the custom, glass-bottomed Biodesy Delta Read Plates, where it undergoes total internal reflection (TIR) to generate the evanescent field at the glass-lipid bilayer interface. […] The fundamental light is filtered out leaving only the SH light which is detected by a photomultiplier tube and processed with custom electronics. […] Ligand injection into the read plate is accomplished with an on-board 8-channel MEMS-based electronic pipetting system, enabling high speed and accuracy. […]
In addition, all experiments included a control buffer injection that was used to determine the significant threshold for SHG intensity change and was calculated in a similar manner. […]

## Nc1nccnc1C(=O)O[C@H](C(=O)Nc1ccc(F)cc1)c1ccccc1 [cpd 5]
Full length MLKL
  Kd: 7.6 µM
RIPK1 kinase domain
  Kd: > 30 µM
RIPK3 kinase domain
  Kd: > 30 µM
Pseudokinase His-MLKL-1
  change in SHG intensity (in words): no change from baseline
